Data taken from patent publication US7691900B2, “Tocopherol derivatives with a long hydroxylated chain, which can be used as neurotrophics” (AxoGlia Therapeutics S.A., priority 2003, dated 2010).

System: microglial cells activated by LPS
Assay: Release of TNF-α (ELISA) in LPS-activated microglial cell cultures
Format: cell-based
Settings: microglia treated with 0.01 μg/ml LPS; 24 h activation; tested at 10^-5, 10^-6, 10^-7 M
Experimental: 2. Measurement of the Release of TNF-α
The expression of the TNF-a represents a parameter for microglial activation often analyzed in the literature. […] A 24 hrs activation by LPS leads to a high increase in the level of TNF-α expression detectable by the ELISA test.
In the experiments, the concentrations of TNF-α in the microglial cell cultures, treated with 0.01 μg/ml of LPS in the presence of TFA-10, TFA-12, TFA-14, TFA-16 and vitamin E, at concentrations of 10^−5, 10^−6 and 10^−7 M, were measured by the inventors after 24 hours activation.

Substance: vitamin E
- activity on TNF-α production, in words: no activity
